Data: publication PMC5282547, “The Proline/Arginine Dipeptide from Hexanucleotide Repeat Expanded C9ORF72 Inhibits the Proteasome” (eNeuro, 2017)
Where two headings read alike, the source gives them in different places. Where no end group is shown, it is not given here.

Columns and labels:
[1] = system: total ubiquitylated protein; test: Ubiquitylation assay (total cellular ubiquitin immunoblot); type: cell-based, rat; settings: 2 µM, 2, 4, 8, 16 h; significant at 2, 8 and 16 h
Protocol: The ubiquitylation assay involved acute time point treatments with PR20. 16 h prior to scheduled lysis, two dishes were treated to a final concentration of 2 μM PR20 using the methods described in the PR20 treatment for biochemical assays subsection. This was repeated 8 h prior to lysis, 4 h prior to lysis, and 2 h prior to lysis. Samples were then lysed in RIPA buffer as described in Cell lysis for ubiquitin blots and processed for Western blot analysis.
(§1) Ubiquitin analysis requires the use of deubiquitinase (DUB) inhibitors. Lysis without these inhibitors runs the risk of degradation of the substrates to be targeted. As such, N-ethylmaleimide (Sigma), a potent DUB inhibitor, was used in the lysis buffer. […] The remainder of the lysis procedure follows Cell lysis.

Dendra2 = test: Optical pulse labeling of Dendra2; type: cell-based, rat; settings: 2 µM peptide; vehicle 29.6 h; not significantly different from vehicle
Protocol: Primary spinal neurons were dissected from E15 rat pups and cultured at a density of 2.5 × 10^5 cells/ml on a laminin/poly-lysine-coated 96-well plate in motor neuron media. Four days after plating, neurons were transfected with Lipofectamine 2000 (Invitrogen). DNA-Lipofectamine mixtures were incubated with neurons for 20 min followed by rinsing. Neurons were then placed in 100 µL of conditioned media that was collected immediately prior to transfection and half fresh motor neuron media containing 4 µM PR20, resulting in a final concentration of 2 µM PR20.
Optical pulse labeling experiments were performed using an automated microscopy platform previously described by [Arrasate et al. (2004)] and [Barmada et al. (2014)]. A Nikon Eclipse Ti inverted microscope equipped with a PerfectFocus system, 20× objective lens and an Andor iXon3 897 EMCCD camera were used to acquire images. Samples were illuminated with a Sutter Instruments Lamba XL lamp. The microscope and related components were encased in custom-built plexiglass enclosure set to maintain the temperature at 37°C and CO2 at 5%. Semrock GFP and TRITC filters were used for excitation and detection. A Semrock 405-nm long-pass filter was used for photoactivation. Image acquisition and stage movements were accomplished in an automated fashion using µManager and original code written in BeanShell. For all experiments, photoconversion occurred 24 h following transfection. GFP and TRITC images were acquired immediately following activation and subsequently every 2 h for 12 h. Images were acquired in a similar 12-h window starting 48 h after PR20 treatment. Using in-house image analysis scripts, neuronal cell bodies were identified based on their fluorescent intensity and morphology, and a ROI was drawn around the perimeter of each cell at each time. Single-cell TRITC intensity values were recorded and used to fit a first order exponential decay curve for individual neurons and calculate a Dendra2-light chain 3 (LC3) half-life for each cell. […]

human proteasomes = test: Direct interaction with human proteasomes (streptavidin pull-down, anti-HA immunoblot); type: binding; settings: 2 µM HA-tagged peptide, HEK293T extracts with HTBH-tagged β4 subunits, 2 h at 4 °C
Protocol: Whole-cell extracts from a stable HEK293T cell line harboring HTBH-tagged β4 subunits were prepared as in Han et al. (2014) and incubated with HA-tagged PR20 or GR20 peptides (2 µM) 2 h at 4 °C. The resulting proteasome-dipeptide complexes were pull-downed with streptavidin agarose beads (Millipore) for 3 h at 4 °C. Unbound proteasomes in the supernatants were discarded, and the pellets were mixed with 2× SDS sample buffer. Different amounts of samples were resolved by SDS-PAGE/immunoblotting against HA and a proteasome core particle α3 subunit.

phosphorylated AMPK = test: Immunoblot for mitochondrial dysfunction; type: cell-based, rat; settings: 2 µM, 48 h, immunoblot normalized to actin
Protocol: All plates were incubated with PR20 for 48 h.

[2] = system: ubiquitin-proteasome system; test: MG-132 flux assay (flux of ubiquitylated substrates through the UPS); type: cell-based, rat
Protocol: MG-132 (Sigma) was used to inhibit proteasomal function. Cells were initially treated with PR20 for a total of 48 h using the method outlined in PR20 treatment for biochemical assays. Four hours prior to lysis, these cells were treated with MG-132 or vehicle. The MG-132 was kept in a stock solution in DMSO. This was added directly to culture to achieve a final concentration of 5 μM. Cells were then lysed in RIPA buffer and immunoblotted for ubiquitin.
as §1
To test for group differences in the flux assay, a permutation test was used. This is a nonparametric statistical test that was implemented in MATLAB. […] The test first quantifies this by taking the average of each experimental group and then finding the difference of ratios. It then permutes two samples located in two groups randomly, and determines that difference between averages again. This is repeated 50,000 times, and a histogram is plotted. This histogram represents the distribution of random noise in the sample. Since a higher difference in the +MG132/−MG132 ratio is a more “significant” result, the percentage of the random noise produced from 50,000 permutations that is higher in magnitude than the true difference (calculated from un-permuted data) is the p value.
Permutations of a data point in a +MG132 into a group labeled −MG132 (or vice versa) were not allowed. […] Thus, this group difference was not interesting to us.

[3] = system: U2OS cells and human astrocytes; settings: depending on the specific assay; ref Kwon et al., 2014; cited from earlier work
Text: The difficulty of distinguishing between toxic HRE mRNA and DPR proteins has impeded our understanding of the mechanism underlying C9ORF72 HRE pathophysiology. As reported in Science ([Kwon et al., 2014]), the McKnight lab devised a strategy to overcome this problem: they studied U2OS cells and human astrocytes directly exposed to synthetic DPR proteins. […] We built upon this approa ...

[4] = system: purified affinity-purified human proteasomes; type: biochemical; settings: for Δ0–5 of Ub-Sic1 signal compared with the no PR20 group: 20 nM Ub-Sic1, n = 3, p < 0.05
Protocol: Polyubiquitylated Sic1 proteins with PY degron motifs and T7 tag (Ub-Sic1) was prepared as previously described by [Choi et al. (2016)]. Different concentrations of PR20 peptides (0, 50, or 500 nM) and purified affinity-purified human proteasomes (5 nM) were preincubated 20 min in proteasome assay buffer [50 mM Tris-HCl (pH 7.5), 100 mM NaCl, 10% glycerol, 2 mM ATP, 10 mM MgCl2, and 1 mM DTT] on ice, and 20 nM reconstituted Ub-Sic1 was subsequently added. Degradation of Ub-Sic1 and PR20 peptides was monitored by immunoblotting using anti-T7 and anti-HA antibodies, respectively. Band intensities were quantified using ImageJ software (version 1.48k, NIH) from three independent immunoblotting assays (n = 3).

human astrocytes = settings: DPR applied repeatedly; ref Kwon et al. (2014); cited from earlier work
Text: We draw a number of conclusions from these experiments.

Sequence: PRPRPRPRPRPRPRPRPRPRPRPRPRPRPRPRPRPRPRPRYPYDVPDYA [PR20]
- total ubiquitylated protein levels over time [1]: progressive increase
- Dendra2 half-life (Dendra2): 30.5 h
- association with proteasomes in pull-down (human proteasomes): associates with proteasomes
- mitochondrial dysfunction (phosphorylated AMPK) versus vehicle (phosphorylated AMPK): no statistically significant differences
- proteasomal flux versus vehicle after 2 h of exposure ([2]; 2 h PR20, ±MG132, n = 6 per group, p = 0.38): no statistically significance
- proteasomal flux (difference in ubiquitin +/- MG-132) versus vehicle ([2]; peptide 48 h (PR20 2 µM), then MG-132 5 µM or vehicle 4 h, permutation test): reduced
- toxic concentration range [3]: 10 to 30 µM
- degradation of the peptide by purified 26S proteasomes ([4]; 0, 5 and 15 min, anti-HA immunoblot, pH 7.5 assay buffer with ATP): not itself degraded
- Δ0–5 of Ub-Sic1 signal compared with the no PR20 group ([4]; 1:10 proteasomes:PR20 (5 nM proteasomes, 50 nM PR20)): statistically significant less
- Δ0–15 of Ub-Sic1 signal compared with the no PR20 group ([4]; 1:10 proteasomes:PR20, n = 3, p < 0.05): statistically significantly less
- Δ0–5 of Ub-Sic1 signal compared with the no PR20 group ([4]; 1:100 proteasomes:PR20 (5 nM proteasomes, 500 nM PR20)): statistically significant less
- Δ0–15 of Ub-Sic1 signal compared with the no PR20 group ([4]; 1:100 proteasomes:PR20, n = 3, p < 0.05): statistically significantly less
- LD50 that kills human astrocytes (human astrocytes): 8.4 µM
